Key:
[1] = test system: LNCaP prostate cancer cell; experiment: LNCaP cell viability (CellTiter-Glo); format: cell-based; settings: Homo sapiens, 72 h; LNCaP cell viability, 3 days, CellTiter-Glo; Table 4
In short: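 LNCaP cells (5000/well, RPMI 1640 + 10% FBS, 37 °C) treated with compounds in 12-point 3-fold serial dilution for three days. Viability read by CellTiter-Glo luminescence, normalized to untreated cells; IC50 from least-squares nonlinear regression.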

[2] = molecular target: P300 (Homo sapiens, UniProt Q09472); experiment: percentage of inhibition (degradation) of p300 at 10 nM, Tables 2-4; format: cell-based; set-up: LNCaP or 22RV1 cells that express CBP/P300 proteins were treated with GNE-781 or the bivalent compounds; endogenous in cells; host or cells: LNCaP or 22RV1 (not given); settings: p300, 10 nM; Table 4; read-out: Degradation (10 nM)
In short: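 Degradation was measured at 10 nM. Cells or tissue were lysed in RIPA with protease and phosphatase inhibitors for 30 min at 4 °C and cleared, and protein was quantified by BCA. Lysates were resolved by SDS-PAGE, detected by chemiluminescent immunoblot, and bands were quantified by densitometry.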

Sequence of P300 (Q09472 whole entry): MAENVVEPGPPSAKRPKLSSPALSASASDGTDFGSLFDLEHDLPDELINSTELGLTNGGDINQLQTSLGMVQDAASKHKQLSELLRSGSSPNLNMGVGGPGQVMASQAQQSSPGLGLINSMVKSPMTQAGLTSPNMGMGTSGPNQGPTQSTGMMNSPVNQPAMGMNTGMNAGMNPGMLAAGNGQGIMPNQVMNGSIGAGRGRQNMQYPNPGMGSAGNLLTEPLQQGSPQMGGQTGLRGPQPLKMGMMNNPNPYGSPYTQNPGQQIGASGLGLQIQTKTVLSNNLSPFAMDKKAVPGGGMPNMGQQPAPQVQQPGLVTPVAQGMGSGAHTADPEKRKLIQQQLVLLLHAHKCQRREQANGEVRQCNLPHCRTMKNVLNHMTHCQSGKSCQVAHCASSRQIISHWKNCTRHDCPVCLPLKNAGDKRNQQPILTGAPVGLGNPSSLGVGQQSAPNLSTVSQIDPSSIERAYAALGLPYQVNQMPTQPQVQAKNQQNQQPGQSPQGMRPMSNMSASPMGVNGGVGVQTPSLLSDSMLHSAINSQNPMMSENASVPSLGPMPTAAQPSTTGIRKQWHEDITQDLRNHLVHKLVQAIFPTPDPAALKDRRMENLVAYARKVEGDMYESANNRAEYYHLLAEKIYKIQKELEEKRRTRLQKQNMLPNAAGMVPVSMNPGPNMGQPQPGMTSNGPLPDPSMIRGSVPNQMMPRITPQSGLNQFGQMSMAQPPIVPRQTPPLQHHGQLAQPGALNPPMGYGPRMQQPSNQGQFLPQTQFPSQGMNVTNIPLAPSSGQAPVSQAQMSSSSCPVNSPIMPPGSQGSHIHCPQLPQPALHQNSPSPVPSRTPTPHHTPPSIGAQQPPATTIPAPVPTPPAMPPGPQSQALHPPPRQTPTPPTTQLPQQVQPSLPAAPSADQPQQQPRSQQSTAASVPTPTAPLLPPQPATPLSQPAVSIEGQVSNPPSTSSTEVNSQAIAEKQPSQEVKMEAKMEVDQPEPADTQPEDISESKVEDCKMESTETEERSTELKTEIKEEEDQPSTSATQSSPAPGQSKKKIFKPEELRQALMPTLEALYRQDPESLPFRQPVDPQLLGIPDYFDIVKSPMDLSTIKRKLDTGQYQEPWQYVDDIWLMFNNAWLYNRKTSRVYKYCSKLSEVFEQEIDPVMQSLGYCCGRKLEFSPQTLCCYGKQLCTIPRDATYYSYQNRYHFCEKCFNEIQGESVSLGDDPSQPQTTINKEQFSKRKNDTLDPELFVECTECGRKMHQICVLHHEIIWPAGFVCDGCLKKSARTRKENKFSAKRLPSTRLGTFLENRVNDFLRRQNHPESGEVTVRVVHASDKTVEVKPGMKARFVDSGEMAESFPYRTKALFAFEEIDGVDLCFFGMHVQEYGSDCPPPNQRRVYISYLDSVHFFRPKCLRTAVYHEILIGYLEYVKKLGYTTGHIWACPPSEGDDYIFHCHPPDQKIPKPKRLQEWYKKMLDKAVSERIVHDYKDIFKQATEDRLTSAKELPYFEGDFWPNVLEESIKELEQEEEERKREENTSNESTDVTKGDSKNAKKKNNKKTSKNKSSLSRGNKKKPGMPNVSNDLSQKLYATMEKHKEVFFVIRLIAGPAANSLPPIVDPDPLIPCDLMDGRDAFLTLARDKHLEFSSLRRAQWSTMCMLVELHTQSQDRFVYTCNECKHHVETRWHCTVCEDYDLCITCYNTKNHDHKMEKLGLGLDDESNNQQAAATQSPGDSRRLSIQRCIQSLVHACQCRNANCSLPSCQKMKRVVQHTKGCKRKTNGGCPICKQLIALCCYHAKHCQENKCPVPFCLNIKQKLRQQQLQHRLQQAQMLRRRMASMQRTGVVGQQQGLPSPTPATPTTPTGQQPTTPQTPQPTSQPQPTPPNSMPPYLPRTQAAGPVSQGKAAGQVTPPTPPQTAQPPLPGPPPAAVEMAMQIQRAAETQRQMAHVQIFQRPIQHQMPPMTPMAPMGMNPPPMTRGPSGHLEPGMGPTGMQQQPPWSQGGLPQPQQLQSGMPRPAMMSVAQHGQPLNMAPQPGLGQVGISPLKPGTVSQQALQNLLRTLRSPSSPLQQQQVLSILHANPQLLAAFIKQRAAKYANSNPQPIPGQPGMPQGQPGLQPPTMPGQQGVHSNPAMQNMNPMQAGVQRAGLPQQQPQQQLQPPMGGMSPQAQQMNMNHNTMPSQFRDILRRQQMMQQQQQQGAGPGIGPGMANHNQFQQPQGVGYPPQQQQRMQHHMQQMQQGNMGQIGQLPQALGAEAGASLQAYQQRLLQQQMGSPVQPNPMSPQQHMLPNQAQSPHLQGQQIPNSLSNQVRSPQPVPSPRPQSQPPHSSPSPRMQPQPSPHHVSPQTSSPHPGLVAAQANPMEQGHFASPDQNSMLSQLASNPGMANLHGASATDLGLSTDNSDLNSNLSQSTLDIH

| Compound | IC50 [1] [nM] | inhibition at 0.01 µM [2] [%] |
| --- | --- | --- |
| CC(=O)N1CCc2c(c(N3CCCc4cc(-c5cnn(C)c5)c(C(F)F)cc43)nn2C2CCN(C(=O)CN3CCN(CCCc4ccc5c(c4)n(C)c(=O)n5C4CCC(=O)NC4=O)CC3)CC2)C1 (stereo not shown) [P-220, 3-(5-(3-(4-(2-(4-(5-Acetyl-3-(7-(difluoromethyl)-6-(1-methyl-1H-pyrazol-4-yl)-3,4-dihydroquinolin-1(2H)-yl)-4,5,6,7-tetrahydro-1H-pyrazolo[4,3-c]pyridin-1-yl)piperidin-1-yl)-2-oxoethyl)piperazin-1-yl)propyl)-3-methyl-2-oxo-2,3-dihydro-1H-benzo[d]imidazol-1-yl)piperidine-2,6-dione] | 15.5 | 50 to 80 |
| CC(=O)N1CCc2c(c(N3CCCc4cc(-c5cnn(C)c5)c(C(F)F)cc43)nn2C2CCN(C(=O)CCN3CCC(CCc4ccc5c(c4)n(C)c(=O)n5C4CCC(=O)NC4=O)CC3)CC2)C1 (stereo not shown) [P-221, 3-(5-(2-(1-(3-(4-(5-acetyl-3-(7-(difluoromethyl)-6-(1-methyl-1H-pyrazol-4-yl)-3,4-dihydroquinolin-1(2H)-yl)-4,5,6,7-tetrahydro-1H-pyrazolo[4,3-c]pyridin-1-yl)piperidin-1-yl)-3-oxopropyl)piperidin-4-yl)ethyl)-3-methyl-2-oxo-2,3-dihydro-1H-benzo[d]imidazol-1-yl)piperidine-2,6-dione] | 2.5 | > 80 |
| CC(=O)N1CCc2c(c(N3CCCc4cc(-c5cnn(C)c5)c(C(F)F)cc43)nn2C2CCN(C(=O)CCCN3CCC(CCc4ccc5c(c4)n(C)c(=O)n5C4CCC(=O)NC4=O)CC3)CC2)C1 (stereo not shown) [P-222, 3-(5-(2-(1-(4-(4-(5-acetyl-3-(7-(difluoromethyl)-6-(1-methyl-1H-pyrazol-4-yl)-3,4-dihydroquinolin-1(2H)-yl)-4,5,6,7-tetrahydro-1H-pyrazolo[4,3-c]pyridin-1-yl)piperidin-1-yl)-4-oxobutyl)piperidin-4-yl)ethyl)-3-methyl-2-oxo-2,3-dihydro-1H-benzo[d]imidazol-1-yl)piperidine-2,6-dione] | 1.4 | > 80 |
| CC(=O)N1CCc2c(c(N3CCCc4cc(-c5cnn(C)c5)c(C(F)F)cc43)nn2C2CCN(C(=O)CCCN3CCC(C#Cc4cccc5c4ccn5C4CCC(=O)NC4=O)CC3)CC2)C1 (stereo not shown) [P-223, 3-(4-((1-(4-(4-(5-Acetyl-3-(7-(difluoromethyl)-6-(1-methyl-1H-pyrazol-4-yl)-3,4-dihydroquinolin-1(2H)-yl)-4,5,6,7-tetrahydro-1H-pyrazolo[4,3-c]pyridin-1-yl)piperidin-1-yl)-4-oxobutyl)piperidin-4-yl)ethynyl)-1H-indol-1-yl)piperidine-2,6-dione] | 43.7 | 50 to 80 |
| CC(=O)N1CCc2c(c(N3CCCc4cc(-c5cnn(C)c5)c(C(F)F)cc43)nn2C2CCN(C(=O)CCCN3CCN(CC#Cc4cccc5c4n(C)c(=O)n5C4CCC(=O)NC4=O)CC3)CC2)C1 (stereo not shown) [P-224, 3-(4-(3-(4-(4-(4-(5-acetyl-3-(7-(difluoromethyl)-6-(1-methyl-1H-pyrazol-4-yl)-3,4-dihydroquinolin-1(2H)-yl)-4,5,6,7-tetrahydro-1H-pyrazolo[4,3-c]pyridin-1-yl)piperidin-1-yl)-4-oxobutyl)piperazin-1-yl)prop-1-yn-1-yl)-3-methyl-2-oxo-2,3-dihydro-1H-benzo[d]imidazol-1-yl)piperidine-2,6-dione] | 9.9 | > 80 |
| CC(=O)N1CCc2c(c(N3CCCc4cc(-c5cnn(C)c5)c(C(F)F)cc43)nn2C2CCN(C(=O)CCCN3CCN(CCCc4cccc5c4n(C)c(=O)n5C4CCC(=O)NC4=O)CC3)CC2)C1 (stereo not shown) [P-225, 3-(4-(3-(4-(4-(4-(5-Acetyl-3-(7-(difluoromethyl)-6-(1-methyl-1H-pyrazol-4-yl)-3,4-dihydroquinolin-1(2H)-yl)-4,5,6,7-tetrahydro-1H-pyrazolo[4,3-c]pyridin-1-yl)piperidin-1-yl)-4-oxobutyl)piperazin-1-yl)propyl)-3-methyl-2-oxo-2,3-dihydro-1H-benzo[d]imidazol-1-yl)piperidine-2,6-dione] | 43.4 | 50 to 80 |
| CC(=O)N1CCc2c(c(N3CCCc4cc(-c5cnn(C)c5)c(C(F)F)cc43)nn2C2CCN(C(=O)CN3CCC(C#Cc4cccc5c4n(C)c(=O)n5C4CCC(=O)NC4=O)CC3)CC2)C1 (stereo not shown) [P-227, 3-(4-((1-(2-(4-(5-acetyl-3-(7-(difluoromethyl)-6-(1-methyl-1H-pyrazol-4-yl)-3,4-dihydroquinolin-1(2H)-yl)-4,5,6,7-tetrahydro-1H-pyrazolo[4,3-c]pyridin-1-yl)piperidin-1-yl)-2-oxoethyl)piperidin-4-yl)ethynyl)-3-methyl-2-oxo-2,3-dihydro-1H-benzo[d]imidazol-1-yl)piperidine-2,6-dione] | 1.8 | > 80 |
| CC(=O)N1CCc2c(c(N3CCCc4cc(-c5cnn(C)c5)c(C(F)F)cc43)nn2C2CCN(C(=O)CN3CCC(CCc4cccc5c4n(C)c(=O)n5C4CCC(=O)NC4=O)CC3)CC2)C1 (stereo not shown) [P-228, 3-(4-(2-(1-(2-(4-(5-acetyl-3-(7-(difluoromethyl)-6-(1-methyl-1H-pyrazol-4-yl)-3,4-dihydroquinolin-1(2H)-yl)-4,5,6,7-tetrahydro-1H-pyrazolo[4,3-c]pyridin-1-yl)piperidin-1-yl)-2-oxoethyl)piperidin-4-yl)ethyl)-3-methyl-2-oxo-2,3-dihydro-1H-benzo[d]imidazol-1-yl)piperidine-2,6-dione] | 0.3 | > 80 |
| CC(=O)N1CCc2c(c(N3CCCc4cc(-c5cnn(C)c5)c(C(F)F)cc43)nn2C2CCN(C(=O)CCCN3CCC(C#Cc4cccc5c4n(C)c(=O)n5C4CCC(=O)NC4=O)CC3)CC2)C1 (stereo not shown) [P-229, 3-(4-((1-(4-(4-(5-acetyl-3-(7-(difluoromethyl)-6-(1-methyl-1H-pyrazol-4-yl)-3,4-dihydroquinolin-1(2H)-yl)-4,5,6,7-tetrahydro-1H-pyrazolo[4,3-c]pyridin-1-yl)piperidin-1-yl)-4-oxobutyl)piperidin-4-yl)ethynyl)-3-methyl-2-oxo-2,3-dihydro-1H-benzo[d]imidazol-1-yl)piperidine-2,6-dione] | 0.4 | > 80 |
| CC(=O)N1CCc2c(c(N3CCCc4cc(-c5cnn(C)c5)c(C(F)F)cc43)nn2C2CCN(C(=O)CCCN3CCC(CCc4cccc5c4n(C)c(=O)n5C4CCC(=O)NC4=O)CC3)CC2)C1 (stereo not shown) [P-230, 3-(4-(2-(1-(4-(4-(5-Acetyl-3-(7-(difluoromethyl)-6-(1-methyl-1H-pyrazol-4-yl)-3,4-dihydroquinolin-1(2H)-yl)-4,5,6,7-tetrahydro-1H-pyrazolo[4,3-c]pyridin-1-yl)piperidin-1-yl)-4-oxobutyl)piperidin-4-yl)ethyl)-3-methyl-2-oxo-2,3-dihydro-1H-benzo[d]imidazol-1-yl)piperidine-2,6-dione] | 17.1 | > 80 |
| CC(=O)N1CCc2c(c(N3CCCc4cc(-c5cnn(C)c5)c(C(F)F)cc43)nn2C2CCN(C(=O)CCN3CCC(C#Cc4cccc5c4n(C)c(=O)n5C4CCC(=O)NC4=O)CC3)CC2)C1 (stereo not shown) [P-231, 3-(4-((1-(3-(4-(5-acetyl-3-(7-(difluoromethyl)-6-(1-methyl-1H-pyrazol-4-yl)-3,4-dihydroquinolin-1(2H)-yl)-4,5,6,7-tetrahydro-1H-pyrazolo[4,3-c]pyridin-1-yl)piperidin-1-yl)-3-oxopropyl)piperidin-4-yl)ethynyl)-3-methyl-2-oxo-2,3-dihydro-1H-benzo[d]imidazol-1-yl)piperidine-2,6-dione] | 1.3 | > 80 |
| CC(=O)N1CCc2c(c(N3CCCc4cc(-c5cnn(C)c5)c(C(F)F)cc43)nn2C2CCN(C(=O)CCN3CCC(CCc4cccc5c4n(C)c(=O)n5C4CCC(=O)NC4=O)CC3)CC2)C1 (stereo not shown) [P-232, 3-(4-(2-(1-(3-(4-(5-Acetyl-3-(7-(difluoromethyl)-6-(1-methyl-1H-pyrazol-4-yl)-3,4-dihydroquinolin-1(2H)-yl)-4,5,6,7-tetrahydro-1H-pyrazolo[4,3-c]pyridin-1-yl)piperidin-1-yl)-3-oxopropyl)piperidin-4-yl)ethyl)-3-methyl-2-oxo-2,3-dihydro-1H-benzo[d]imidazol-1-yl)piperidine-2,6-dione] | 12.9 | > 80 |
| CC(=O)N1CCc2c(c(N3CCCc4cc(-c5cnn(C)c5)c(C(F)F)cc43)nn2C2CCN(C(=O)CCN3CCN(CC#Cc4ccc5c(c4)n(C)c(=O)n5C4CCC(=O)NC4=O)CC3)CC2)C1 (stereo not shown) [P-233, 3-(5-(3-(4-(3-(4-(5-Acetyl-3-(7-(difluoromethyl)-6-(1-methyl-1H-pyrazol-4-yl)-3,4-dihydroquinolin-1(2H)-yl)-4,5,6,7-tetrahydro-1H-pyrazolo[4,3-c]pyridin-1-yl)piperidin-1-yl)-3-oxopropyl)piperazin-1-yl)prop-1-yn-1-yl)-3-methyl-2-oxo-2,3-dihydro-1H-benzo[d]imidazol-1-yl)piperidine-2,6-dione] | 18.2 | 50 to 80 |
| CC(=O)N1CCc2c(c(N3CCCc4cc(-c5cnn(C)c5)c(C(F)F)cc43)nn2C2CCN(C(=O)CCN3CCN(CCCc4ccc5c(c4)n(C)c(=O)n5C4CCC(=O)NC4=O)CC3)CC2)C1 (stereo not shown) [P-234, 3-(5-(3-(4-(3-(4-(5-acetyl-3-(7-(difluoromethyl)-6-(1-methyl-1H-pyrazol-4-yl)-3,4-dihydroquinolin-1(2H)-yl)-4,5,6,7-tetrahydro-1H-pyrazolo[4,3-c]pyridin-1-yl)piperidin-1-yl)-3-oxopropyl)piperazin-1-yl)propyl)-3-methyl-2-oxo-2,3-dihydro-1H-benzo[d]imidazol-1-yl)piperidine-2,6-dione] | 6.8 | > 80 |

From US20240100170A1, “CYCLIC-AMP RESPONSE ELEMENT BINDING PROTEIN (CBP) AND/OR ADENOVIRAL E1A BINDING PROTEIN OF 300 KDA (P300) DEGRADATION COMPOUNDS AND METHODS OF USE” (CULLGEN (SHANGHAI), INC., priority 2020, published 2024)
